The text below walks through data of patent US20190119200A1, “TERTIARY AMIDES AND METHOD OF USE” (AbbVie Inc., priority 2016, published 2019).

What all share (assay type): cell-based
The target in experiment [1] is T1, LPAR1 (Homo sapiens, UniProt Q92633).
T1 construct: host or cells: U2OS
The experiment is described as follows: LPAR1 FLIPR Assay. To be noted: U2OS cells stably expressing LPAR1, LPA (EC80), Calcium 6 FLIPR dye; for Emax: read-out: Maximum Inhibition. Summed up:
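Calcium flux read-out (515-575 nm, FLIPR) in LPAR1-expressing U2OS cells after LPA challenge at EC80, given 3 min after compound addition; cells carried Calcium 6 dye loaded 2 h at 37° C. Eleven-point 3-fold dilutions were fitted with a four-parameter Hill equation for IC50.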

Experiment [2] concerns the target T1, LPAR1. In words: LPAR1 Arrestin Assay (arrestin reporter assay). To be noted: U2OS cells stably expressing the LPAR1 receptor, 200 nM 18:1 LPA (EC80); for Emax: read-out: Maximum Inhibition. As to the method:
One day prior to the experiment, frozen U2OS cells stably expressing the LPAR1 receptor (Life Technologies, Grand Island, N.Y., #K1519A) were thawed, centrifuged at 1,000 rpm for 5 minutes to remove DMSO, and resuspended in FreeStyle™ media (Gibco, Grand Island, N.Y.). Forty microliters of cells were plated into PDL-coated 384-well plates (Greiner Bio-One, Monroe, N.C.) at 10,000 cells/well, and then the plates were incubated overnight in humidified 5% CO2 at 37° C. Test compounds were dissolved in DMSO, and 12-point, 1:3 dilution CRCs were prepared in duplicate; daughter plates were prepared by aliquoting 0.8 μL/well of test compound dilutions into 384-well plates. On the day of the assay, the daughter plates were diluted to 6× stocks using HEPES-buffered HBSS, then 10 μL of 6× test compounds were added to the cells, and the plates were incubated at 37° C. for one hour. After this 1 hour incubation, 10 μL of a 6× stock of the LPAR1 agonist, 18:1 LPA (Avanti Polar Lipids, Alabaster, Ala.), was prepared in HEPES-buffered HBSS+0.1% fatty acid-free BSA (Sigma, St. Louis, Mo.). The 6×LPA was added to all wells for a final concentration of 200 nM, which corresponds to the 18:1 LPA EC80 in this arrestin assay. The final DMSO concentration in the assay plate was 0.1%, and the final BSA concentration was 0.02%. After addition of LPA to all wells, the assay plates were incubated in humidified 5% CO2 at 37° C. for five hours. During the incubation period, 6× dye from the LiveBLAzer™-FRET B/G with CCF4-AM kit (Life Technologies, Grand Island, N.Y.) was prepared according to manufacturers' instructions. At the end of the 5 hour compound incubation, 10 μL of 6× dye was added to each well, and the assay plate was incubated for two hours in the dark at room temperature. Throughout the assay procedure, all volume additions were performed with a Biomek® NX liquid handler (Beckman Coulter, Indianapolis, Ind.). After the 2 hour dye-load, fluorescence was measured on an EnVision® Multilabel Plate Reader (Perkin Elmer, Waltham, Mass.) with an excitation filter at 409/20 nm and emission filters at 460/40 nm and 530/30 nm. Data processing was performed as recommended by the LiveBLAzer™-FRET B/G with CCF4-AM kit manual; all test compound CRCs were performed in duplicate with n≥3.

For experiment [3], the system named is LPA-induced MCP-1 in NRK-49F cells. The experiment is described as follows: LPA-induced MCP-1 AlphaLISA assay. As to conditions: Rattus norvegicus, final LPA 10 μM, 7 hours; for Emax: read-out: Maximum Inhibition. The method, boiled down: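 NRK-49F rat fibroblasts, serum-starved overnight, pretreated with compound for 30 min at 37 °C (1% DMSO final), then stimulated with 10 μM LPA final. MCP-1 in the supernatant was measured by mouse/rat CCL2 AlphaLISA. IC50 values came from four-parameter logistic fits of the ratio data.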
A general note: In Alpha technology, singlet oxygen from a donor bead excites a nearby acceptor bead.

As usually defined, the IC50 is the concentration needed to halve the response being measured.

T1 sequence (Q92633 whole entry): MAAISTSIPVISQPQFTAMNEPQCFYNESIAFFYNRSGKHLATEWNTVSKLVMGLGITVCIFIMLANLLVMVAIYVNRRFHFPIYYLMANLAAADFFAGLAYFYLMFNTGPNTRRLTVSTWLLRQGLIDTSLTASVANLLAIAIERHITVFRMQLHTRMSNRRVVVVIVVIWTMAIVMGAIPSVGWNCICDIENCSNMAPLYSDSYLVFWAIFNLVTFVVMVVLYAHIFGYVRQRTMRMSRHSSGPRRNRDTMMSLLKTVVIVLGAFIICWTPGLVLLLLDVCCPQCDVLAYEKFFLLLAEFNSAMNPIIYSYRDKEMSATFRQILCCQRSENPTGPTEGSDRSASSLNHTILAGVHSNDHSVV

In the case of `COc1cc(C(=O)N(CCCc2ccc(C)o2)CCCC(C)(O)C(=O)O)cc(OC)c1C` (stereo not drawn) [Example 174, 5-{(3,5-dimethoxy-4-methylbenzoyl)[3-(5-methylfuran-2-yl)propyl]amino}-2-hydroxy-2-methylpentanoic Acid], the figures for the IC50 in experiment [1], in experiment [2] and in experiment [3] were 33 nM, 991 nM and 5430 nM, respectively. The Emax in experiment [1] is 73%; in experiment [2] it was 118%; in experiment [3], 65%.
`COc1cc(C(=O)N(CCCCC(=O)O)CCCc2ccccc2)cc(OC)c1F` [Example 99, 5-[(4-fluoro-3,5-dimethoxybenzoyl)(3-phenylpropyl)amino]pentanoic Acid]: the half-inhibitory concentration (IC50) turned out to be 67 nM in experiment [1], 3250 nM in experiment [2] and 7850 nM in experiment [3]. The figures for the Emax in experiment [1], in experiment [2] and in experiment [3] were 82%, 112% and 56%, respectively.
